Measurements: patent publication US10086085B2, “Bifunctional cytotoxic agents” (priority 2014, dated 2018)
Read-outs that look alike come from different tables or passages of the source.

Key:
HL60 (leukemia) = assay: Cytotoxicity assay for payloads (MTS), HL-60 cells; type: cell-based; conditions: incubated with compounds for four days, MTS absorbance 490 nm
Protocol: (§1) Cancer cell lines were obtained from ATCC (Manassas, Va.). N87 (human gastric carcinoma derived from metastatic liver site). HL60 (leukemia), A375 (melanoma) and HUVEC (human umbilical vein endothelial cells). were grown in RPMI 1640 media. All media were supplemented with 10% fetal bovine serum, 1% sodium pyruvate, and 1% L-glutamine (Invitrogen, Grand Island, N.Y.). Human umbilical vein endothelial cells (HUVEC) were obtained from Lonza (Allendale, N.J.) and maintained in EGM2 media supplemented with EGM-2 SingleQuots (Lonza # CC-4176). All cells were maintained in a humidified incubator (37° C., 5% CO2).
(§2) Cells in 100 μl medium were cultured in a 96-well plate. Cancer cell lines treated with the indicated compounds by adding 50 μl of 3× stocks in duplicate at 10 concentrations. Cells were incubated with compounds for four days, then 30 μl of CellTiter® 96 AQueous One MTS Solution (Promega Cat # G3582) was added to the cells, incubated 1.5 hr at 37° C., then absorbance measured at 490 nm on a Victor plate reader (Perkin Elmer, Waltham, Mass.). Relative cell viability was determined as a percentage of untreated control wells. IC50 values were calculated using four parameter logistic model #203 with XLfit v4.2 (IDBS, Guildford, Surry, UK).

[1] = system: N87 (human gastric carcinoma derived from metastatic liver site); assay: Cytotoxicity assay for payloads (MTS), N87 cells; type: cell-based; conditions: N87 cells, incubated with compounds for four days, MTS absorbance 490 nm, read-out: N87 IC50
Protocol: as §1, §2

For `O=C(CCNC(=O)N1C[C@@H](CCl)c2c1cc(O)c1ccccc21)N1C[C@@H](CCl)c2c1cc(O)c1ccccc21` [Compound 65, (S)-1-Chloromethyl-5-hydroxy-1,2-dihydro-benzo[e]indole-3-carboxylic acid [3-((S)-1-chloromethyl-5-hydroxy-1,2-dihydro-benzo[e]indol-3-yl)-3-oxo-propyl]-amide], the IC50 (HL60 (leukemia); Homo sapiens, 96 h) was 4 pM and the IC50 ([1]; Homo sapiens, 96 h) was 554 pM.
Compound `Nc1ccc(CCC(=O)N(CC(=O)N2C[C@@H](CCl)c3c2cc(O)c2ccccc32)CC(=O)N2C[C@@H](CCl)c3c2cc(O)c2ccccc32)cc1` [Compound 56, 3-(4-Amino-phenyl)-N,N-bis-[2-((S)-1-chloromethyl-5-hydroxy-1,2-dihydro-benzo[e]indol-3-yl)-2-oxo-ethyl]-propionamide] has an IC50 (HL60 (leukemia); Homo sapiens, 96 h) of 6930 pM and an IC50 ([1]; Homo sapiens, 96 h) of no less than 100000 pM.
`O=C([C@@H]1CCC[C@H](C(=O)N2C[C@@H](CCl)c3c2cc(O)c2ccccc32)C1)N1C[C@@H](CCl)c2c1cc(O)c1ccccc21` [Compound 16, (S)-((1R,3S)-cyclohexane-1,3-diyl)bis(((S)-1-(chloromethyl)-5-hydroxy-1H-benzo[e]indol-3(2H)-yl)methanone)] was tested, and the IC50 (HL60 (leukemia); Homo sapiens, 96 h) was 163 pM and the IC50 ([1]; Homo sapiens, 96 h) was 1760 pM.
`CC(=O)Oc1cc2c(c3ccccc13)[C@H](CCl)CN2C(=O)C12CCC(C(=O)N3C[C@@H](CCl)c4c3cc(OC(C)=O)c3ccccc43)(CC1)N2` [Compound 79, 7-azabicyclo[2.2.1]heptane-1,4-diylbis[carbonyl(1S)-1-(chloromethyl)-1,2-dihydro-3H-benzo[e]indole-3,5-diyl]diacetate] showed an IC50 (HL60 (leukemia)) of 496 pM and an IC50 [1] of 7960 pM.
`N[C@@H](CCC(=O)N1C[C@H]2C[C@@]23C1=CC(=O)c1ccccc13)C(=O)N1C[C@H]2C[C@@]23C1=CC(=O)c1ccccc13` [Compound 167, (2S)-2-amino-1,5-bis[(1aS,9bR)-5-oxo-1a,2-dihydro-1H-benzo[e]cyclopropa[c]indol-3(5H)-yl]pentane-1,5-dione] gave an IC50 (HL60 (leukemia); Homo sapiens, 96 h) of 1450 pM and an IC50 ([1]; Homo sapiens, 96 h) of no less than 10000 pM.
With `O=C(c1ccc(C(=O)N2C[C@@H](CCl)c3c2cc(O)c2ccccc32)s1)N1C[C@@H](CCl)c2c1cc(O)c1ccccc21` [Compound 29, (S)-thiophene-2,5-diylbis(((S)-1-(chloromethyl)-5-hydroxy-1H-benzo[e]indol-3(2H)-yl)methanone)] the IC50 (HL60 (leukemia); Homo sapiens, 96 h) was less than 1 pM and the IC50 ([1]; Homo sapiens, 96 h) was 9 pM.
`O=C(OCC1c2ccccc2-c2ccccc21)N(CC(=O)N1C[C@@H](CCl)c2c1cc(O)c1ccccc21)CC(=O)N1C[C@@H](CCl)c2c1cc(O)c1ccccc21` [Compound 172, 9H-fluoren-9-ylmethyl bis{2-[(1S)-1-(chloromethyl)-5-hydroxy-1,2-dihydro-3H-benzo[e]indol-3-yl]-2-oxoethyl}carbamate] gave an IC50 (HL60 (leukemia); Homo sapiens, 96 h) of 474 pM and an IC50 ([1]; Homo sapiens, 96 h) of 13800 pM.
`CC(=O)Oc1cc2c(c3c(C)c[nH]c13)[C@H](CCl)CN2C(=O)C12CCC(C(=O)N3C[C@@H](CCl)c4c3cc(OC(C)=O)c3[nH]cc(C)c43)(CC1)C2` [Compound 88, bicyclo[2.2.1]heptane-1,4-diylbis[carbonyl(1S)-1-(chloromethyl)-8-methyl-1,6-dihydropyrrolo[3,2-e]indole-3,5(2H)-diyl]diacetate] was tested, and the IC50 (HL60 (leukemia); Homo sapiens, 96 h) was 22 pM and the IC50 ([1]; Homo sapiens, 96 h) was 502 pM.
`CC(=O)Oc1cc2c(c3ccccc13)[C@H](CCl)CN2C(=O)C12CC(CC(=O)N3C[C@@H](CCl)c4c3cc(O)c3ccccc43)(C1)C2` [Compound 162, (1S)-1-(chloromethyl)-3-[(3-{2-[(1S)-1-(chloromethyl)-5-hydroxy-1,2-dihydro-3H-benzo[e]indol-3-yl]-2-oxoethyl}bicyclo[1.1.1]pent-1-yl)carbonyl]-2,3-dihydro-1H-benzo[e]indol-5-yl acetate] gave an IC50 (HL60 (leukemia); Homo sapiens, 96 h) of 20 pM and an IC50 ([1]; Homo sapiens, 96 h) of 749 pM.
`COC(=O)[C@H]1O[C@@H](Oc2cc3c(c4ccccc24)[C@H](CCl)CN3C(=O)C23CC(C(=O)N4C[C@@H](CCl)c5c4cc(O)c4ccccc54)(C2)C3)[C@H](OC(C)=O)[C@@H](OC(C)=O)[C@@H]1OC(C)=O` [Compound 141, (1S)-1-(chloromethyl)-3-[(3-{[(1S)-1-(chloromethyl)-5-hydroxy-1,2-dihydro-3H-benzo[e]indol-3-yl]carbonyl}bicyclo[1.1.1]pent-1-yl)carbonyl]-2,3-dihydro-1H-benzo[e]indol-5-yl methyl 2,3,4-tri-O-acetyl-beta-D-glucopyranosiduronate] was tested, and the IC50 (HL60 (leukemia); Homo sapiens, 96 h) was 361 pM and the IC50 ([1]; Homo sapiens, 96 h) was 12700 pM.
With `CC(=O)Nc1ccc2c(OC(C)=O)cc3c(c2c1)[C@H](CCl)CN3C(=O)C12CC(C(=O)N3C[C@@H](CCl)c4c3cc(OC(C)=O)c3ccccc43)(C1)C2` [Compound 109, (1S)-3-[(3-{[(1S)-8-(acetylamino)-5-(acetyloxy)-1-(chloromethyl)-1,2-dihydro-3H-benzo[e]indol-3-yl]carbonyl}bicyclo[1.1.1]pent-1-yl)carbonyl]-1-(chloromethyl)-2,3-dihydro-1H-benzo[e]indol-5-yl acetate] the IC50 (HL60 (leukemia); Homo sapiens, 96 h) was 95 pM and the IC50 ([1]; Homo sapiens, 96 h) was 2300 pM.
Compound `Cc1c[nH]c2c(O)cc3c(c12)[C@H](CCl)CN3C(=O)CN(CC(=O)N1C[C@@H](CCl)c2c1cc(O)c1[nH]cc(C)c21)C(=O)OCC1c2ccccc2-c2ccccc21` [Compound 169, 9H-fluoren-9-ylmethyl bis{2-[(1S)-1-(chloromethyl)-5-hydroxy-8-methyl-1,6-dihydropyrrolo[3,2-e]indol-3(2H)-yl]-2-oxoethyl}carbamate] has an IC50 (HL60 (leukemia); Homo sapiens, 96 h) of 388 pM and an IC50 ([1]; Homo sapiens, 96 h) of 9820 pM.
Compound `Nc1cc2c(c3ccccc13)[C@H](CCl)CN2C(=O)C12CC(C(=O)N3C[C@@H](CCl)c4c3cc(N)c3ccccc43)(C1)C2` [Compound 130, bicyclo[1.1.1]pentane-1,3-diylbis{[(1S)-5-amino-1-(chloromethyl)-1,2-dihydro-3H-benzo[e]indol-3-yl]methanone}] has an IC50 (HL60 (leukemia); Homo sapiens, 96 h) of 227 pM and an IC50 ([1]; Homo sapiens, 96 h) of 1800 pM.
`Cc1c[nH]c2c(O)cc3c(c12)[C@H](CCl)CN3C(=O)C12CC(C(=O)N3C[C@@H](CCl)c4c3cc(N)c3ccccc43)(C1)C2` [Compound 180, [(1S)-5-amino-1-(chloromethyl)-1,2-dihydro-3H-benzo[e]indol-3-yl](3-{[(1S)-1-(chloromethyl)-5-hydroxy-8-methyl-1,6-dihydropyrrolo[3,2-e]indol-3(2H)-yl]carbonyl}bicyclo[1.1.1]pent-1-yl)methanone] was tested, and the IC50 (HL60 (leukemia); Homo sapiens, 96 h) was 48 pM and the IC50 ([1]; Homo sapiens, 96 h) was 425 pM.
`CC(=O)Oc1cc2c(c3ccccc13)[C@H](CCl)CN2C(=O)c1ccc(C(=O)N2C[C@@H](CCl)c3c2cc(OC(C)=O)c2ccccc32)cc1` [Compound 176, benzene-1,4-diylbis[carbonyl(1S)-1-(chloromethyl)-1,2-dihydro-3H-benzo[e]indole-3,5-diyl] diacetate] was tested, and the IC50 (HL60 (leukemia); Homo sapiens, 96 h) was 199 pM and the IC50 ([1]; Homo sapiens, 96 h) was 26400 pM.
For `Nc1cc2c(c3ccccc13)[C@H](CCl)CN2C(=O)C12CC(C(=O)N3C[C@@H](CCl)c4c3cc(OP(=O)(O)O)c3ccccc43)(C1)C2` [Compound 161, (1S)-3-[(3-{[(1S)-5-amino-1-(chloromethyl)-1,2-dihydro-3H-benzo[e]indol-3-yl]carbonyl}bicyclo[1.1.1]pent-1-yl)carbonyl]-1-(chloromethyl)-2,3-dihydro-1H-benzo[e]indol-5-yl dihydrogen phosphate], the IC50 (HL60 (leukemia); Homo sapiens, 96 h) was 27200 pM and the IC50 ([1]; Homo sapiens, 96 h) was no less than 10000 pM.
`O=C(c1ccc(C(=O)N2C[C@@H](CCl)c3c2cc(O)c2ccccc32)[nH]1)N1C[C@@H](CCl)c2c1cc(O)c1ccccc21` [Compound 32, (S)-(1H-pyrrole-2,5-diyl)bis(((S)-1-(chloromethyl)-5-hydroxy-1H-benzo[e]indol-3(2H)-yl)methanone)] was tested, and the IC50 (HL60 (leukemia); Homo sapiens, 96 h) was 5 pM and the IC50 ([1]; Homo sapiens, 96 h) was 52 pM.
`O=C(O)[C@H]1O[C@@H](Oc2cc3c(c4ccccc24)[C@H](CCl)CN3C(=O)c2ccc(C(=O)N3C[C@@H](CCl)c4c3cc(O)c3ccccc43)s2)[C@H](O)[C@@H](O)[C@@H]1O` [Compound 164, (2S,3S,4S,5R,6S)-6-(((S)-1-(chloromethyl)-3-(5-((S)-1-(chloromethyl)-5-hydroxy-2,3-dihydro-1H-benzo[e]indole-3-carbonyl)thiophene-2-carbonyl)-2,3-dihydro-1H-benzo[e]indol-5-yl)oxy)-3,4,5-trihydroxytetrahydro-2H-pyran-2-carboxylic acid] was tested, and the IC50 (HL60 (leukemia); Homo sapiens, 96 h) was 57 pM.
In the case of `CC(=O)Oc1cc2c(c3ccccc13)[C@H](CCl)CN2C(=O)C12CCC(C(=O)N3C[C@@H](CCl)c4c3cc(O)c3ccccc43)(CC1)C2` [Compound 134, (1S)-1-(chloromethyl)-3-[(4-{[(1S)-1-(chloromethyl)-5-hydroxy-1,2-dihydro-3H-benzo[e]indol-3-yl]carbonyl}bicyclo[2.2.1]hept-1-yl)carbonyl]-2,3-dihydro-1H-benzo[e]indol-5-yl acetate], the IC50 (HL60 (leukemia); Homo sapiens, 96 h) is reported as 99 pM.
`CC(=O)Oc1cc2c(c3ccccc13)[C@H](CCl)CN2C(=O)CNCC(=O)N1C[C@@H](CCl)c2c1cc(OC(C)=O)c1ccccc21` [Compound 53, Acetic acid (S)-3-{2-[2-((S)-5-acetoxy-1-chloromethyl-1,2-dihydro-benzo[e]indol-3-yl)-2-oxo-ethylamino]-acetyl}-1-chloromethyl-2,3-dihydro-1H-benzo[e]indol-5-1 ester] showed an IC50 (HL60 (leukemia); Homo sapiens, 96 h) of 12 pM.
